Read-outs that look alike come from different tables or passages of the source. Ends that are not written are not given here.
How the values were obtained:
human SIRT1 [1] = molecular target: T1, human SIRT1 (Homo sapiens, UniProt Q96EB6); assay: SIRT-Glo luminogenic enzymatic inhibitory assay (inhibition rate and IC50); format: biochemical; conditions: n = 4, read-out: IC50
T1 construct: host or cells: Escherichia coli M15
T1 sequence (Q96EB6 with tags, fused parts or gaps): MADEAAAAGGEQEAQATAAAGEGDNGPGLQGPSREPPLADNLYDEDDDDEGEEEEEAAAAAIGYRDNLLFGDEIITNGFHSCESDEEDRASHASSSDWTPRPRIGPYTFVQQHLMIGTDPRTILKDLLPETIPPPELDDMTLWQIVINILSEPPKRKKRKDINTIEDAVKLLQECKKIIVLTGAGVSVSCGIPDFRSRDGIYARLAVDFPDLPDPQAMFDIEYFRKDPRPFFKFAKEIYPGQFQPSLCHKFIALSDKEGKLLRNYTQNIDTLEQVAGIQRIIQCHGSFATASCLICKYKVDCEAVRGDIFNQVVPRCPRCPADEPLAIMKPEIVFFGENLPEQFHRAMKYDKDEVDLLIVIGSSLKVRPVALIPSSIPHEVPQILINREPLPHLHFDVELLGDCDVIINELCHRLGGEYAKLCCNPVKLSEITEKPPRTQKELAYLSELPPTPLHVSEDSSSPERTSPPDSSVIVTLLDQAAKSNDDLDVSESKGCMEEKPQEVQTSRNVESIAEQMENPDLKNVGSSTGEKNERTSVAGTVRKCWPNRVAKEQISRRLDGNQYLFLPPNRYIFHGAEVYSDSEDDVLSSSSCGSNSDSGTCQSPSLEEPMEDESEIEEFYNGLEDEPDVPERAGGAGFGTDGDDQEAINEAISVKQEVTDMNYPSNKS

human SIRT1 [2] = molecular target: T1, human SIRT1; assay: Thermal shift assay (TSA) of Sirtuin 1 without NAD+; format: binding; set-up: TSA(without NAD+) Primary screening (TSA) TmD (K): unit not given here; conditions: for TSA(without NAD+) Primary screening (TSA) TmD (K) / ΔTm at 10 µM: 10 µM, n = 1; for ΔTm at 10 µM: read-out: TSA(without NAD+) Primary screening (TSA) delta Tm (K); for thermal shift in SIRT1 melting curves, separate additions: separate additions of H3K9 (120 µM) or NAD+ (500 µM)
Experimental: (§1) A total of 3,192 compounds extracted from the proposed lists were first screened by thermal shift assay (TSA), which determined a melting temperature shift (ΔTm) of Sirtuin 1 upon the addition of a test compound at a concentration of 10 µM (n = 1) with primary hit criteria of ΔTm > 0.45 K or ΔTm < −1.5 K. Primary hits (48 compounds) were retested in the same assay at three concentrations (5, 10, 20 µM, n = 4) for hit confirmation and for dose-dependency check. Secondary hits (41 compounds) were checked their selectivity for Sirtuin 1 based on counterscreening on unrelated protein targets (bovine carbonic anhydrase (CA) and recombinant SH2 domain of hABL1 kinase (ABL1)) at three different concentrations (5, 10, 20 µM, n = 4), which yielded 38 hit compounds, hereafter referred to as TSA hits. The TSA screening above was conducted in the absence of NAD^+. As noted, the structure of Sirtuin 1 is different in the presence of NAD^+ and substrate. The chemical profile of TSA hits found from the different conditions could be different. […] As a result, 39 TSA hits were found. Regardless of the presence of NAD^+, 29 compounds were shared in both TSA hits.
B. Setup and validation of Protein Thermal Shift Assay.
All tested compounds were obtained from the screening compound collection of Enamine Ltd.
(Kiev, Ukraine). Stock solutions of the tested compounds were prepared at 10 mM in 100% DMSO and were stored at −20 °C until use. All thermal shift assay (TSA) experiments with SIRT1 protein were performed using ViiA™7 real-time PCR System equipped with 384-well heat block (Applied Biosystems, USA). General TSA methodology was adopted from the literature3-5 and experimentally modified in order to optimize conditions for measuring SIRT1 melting temperature shifts upon interaction with small molecules. To define the optimal buffer composition for the TSA procedure, a matrix of common buffers combined on a 96-well plate (Figure S3) was tested in thermal melt experiment on a 384-well plate (each buffer composition in quadruplicate). In addition, each buffer composition shown on Figure S3 was tested at two different buffering component concentrations, as listed in Table S1, resulting in two 384-well plate buffer screening experiments and the total of 192 different buffer compositions tested.
Figure S3. Matrix plate of the buffer compositions assessed for TSA optimization.
(1 picture or pasted object on this page, not shown here)
(§2) Table S1. Buffer concentrations used for preparing buffer composition matrix screening plates.
(§3) Buffer Plate 1 (mM) Plate 2 (mM)
(§4) Selection of the optimal buffer composition was based on balancing several criteria including undistorted protein melting curve, maximized melting temperature stability of SIRT1 protein and maximized melting temperature shift induced by the acetylated histone H3K9 peptide (KQTARK(Ac)STGG, a natural substrate of SIRT1). Thermal shift experiments were done at 120 µM H3K9 in the presence of 500 µM NAD+, a co-factor of SIRT1. Separate additions of H3K9 or […]
result, the buffer consisting of 20 mM Tris-HCl pH 8 and 50 mM NaCl was selected for the screening. Purified SIRT1 protein was pre-mixed with SYPRO Orange dye (Thermo Fischer Scientific, Cat. S6650, 5000x stock) to prepare a master mix at 400 µg/mL protein and 10x dye concentration. Tested compounds were added to the protein-dye master mix at 10 µM (1% final DMSO concentration) and incubated for 1 h at 4 °C in MicroAmp® optical 384-well reaction plates (ThermoFisher, Cat. 4309849) sealed with optical sealing film (ThermalSeal RT2, Excel Scientific, Cat. TS-RT2). The volumes of all reaction mixtures were 10 µL (4 µg SIRT1 per well). The reaction plates were then kept at ambient temperature (22-24 °C) for additional 15 minutes to ensure protein-compound interactions. Thermal scanning was performed by raising temperature to 35 °C at 1.6 °C/min without signal detection followed by 35 °C to 75 °C temperature ramp at 0.05 °C/s with […]

human SIRT1 [3] = molecular target: T1, human SIRT1; assay: Thermal shift assay (TSA) of Sirtuin 1 in the presence of NAD+; format: binding; conditions: for ΔTm at 10 µM: n = 1, read-out: TSA(with NAD+) Primary screening (TSA) delta Tm (K)
Experimental: as §1, §2, §3, §4
result, the buffer consisting of 20 mM Tris-HCl pH 8 and 50 mM NaCl was selected for the screening. Purified SIRT1 protein was pre-mixed with SYPRO Orange dye (Thermo Fischer Scientific, Cat. S6650, 5000x stock) to prepare a master mix at 400 µg/mL protein and 10x dye concentration. Tested compounds were added to the protein-dye master mix at 10 µM (1% final DMSO concentration) and incubated for 1 h at 4 °C in MicroAmp® optical 384-well reaction plates (ThermoFisher, Cat. 4309849) sealed with optical sealing film (ThermalSeal RT2, Excel Scientific, Cat. TS-RT2). The volumes of all reaction mixtures were 10 µL (4 µg SIRT1 per well). The reaction plates were then kept at ambient temperature (22-24 °C) for additional 15 minutes to ensure protein-compound interactions. Thermal scanning was performed by raising temperature to 35 °C at 1.6 °C/min without signal detection followed by 35 °C to 75 °C temperature ramp at 0.05 °C/s with constant fluorescence intensity reading at 1 sec intervals using EX470/EM623 nm filter set. Primary screening of the whole test set of 3,192 compounds was carried out in singletons. The raw data of dye fluorescence intensity change upon protein melt were exported using the ViiA7 RUO software (Applied Biosystems/ThermoFischer Scientific). Further data visualization, curve fitting, melting temperature calculations on the raw fluorescence data were performed using custom-made Microsoft Excel scripts developed by us. The peak of the first derivative for the fluorescence curve was used to define melting temperature (Tm). Averaged Tm values for the control wells (64 wells per plate), containing only the protein, dye and 1% DMSO were used as a reference point to determine melting temperature shifts (ΔTm). Hit selection criteria was ΔTm > 0.45 °C or ΔTm < −1.5 °C. All primary hits were re-tested in the same assay at 3 concentrations (20, 10 and 5 µM, n = 4) for hit confirmation

[4] = tested on: bovine carbonic anhydrase (CA); assay: TSA counterscreening on unrelated protein, carbonic anhydrase; format: binding; conditions: combined verdict on CA and Abl SH2; TSA flow with NAD+
Experimental: as §1

[5] = final Sirtuin 1 concentration 20 nM

Compound | IC50 (human SIRT1 [1]; [5]) | TSA(without NAD+) Primary screening (TSA) TmD (K) (human SIRT1 [2]) | ΔTm at 10 µM (human SIRT1 [2]) | ΔTm at 10 µM (human SIRT1 [3]) | also measured
O=C1NC(=O)c2ccccc2/C1=C\NNC(=O)C12CC3CC(CC(C3)C1)C2 [Compound Z165047618] |  |  |  |  | IC50 (human SIRT1 [1]; final Sirtuin 1 concentration 30 nM (compounds marked *)): 13 µM; ΔTm, additional TSA experiment (human SIRT1 [2]; without NAD+, n = 4): −0.03 K
Cc1nc(-c2ccc(CCNC(=O)c3ccc(NC(=O)c4cccs4)cc3)s2)cs1 [Compound Z165049452] | 12 µM |  |  |  | 
NCc1nc2c(cnn2-c2ccccc2)c(=O)[nH]1 [Compound Z235344735] | 7.6 µM |  |  |  | 
Cc1ccc(C(=O)Nc2nc3ccc(NS(=O)(=O)c4ccc5c(c4)CCC(=O)N5)cc3s2)s1 [Compound Z605844126] | 15 µM |  |  |  | 
Cc1ccc(C(CNC(=O)c2ccc(C(N)=O)cc2)N2CCCC2)o1 (stereo not drawn) [Compound Z1001367730] |  | 49.64 | -0.08 °C | -0.11 °C | 
CC(Nc1ccc2nnnn2n1)c1ccc(Oc2ccccc2)cc1 (stereo not drawn) [Compound Z1002316132] |  | 49.54 | -0.05 °C | 0.09 °C | 
O=c1[nH]c2ccc(S(=O)(=O)NCc3cc4ccccc4[nH]3)cc2[nH]1 [Compound Z1003449802] |  | 49.54 | -0.07 °C | 0.68 °C | TSA(with NAD+) Counter Screening (Carbonic anhydrase AND Abl kinase SH2 domain) Good/Bad [4]: Bad
NC(=O)c1ccc[n+]([C@@H]2O[C@H](COP(=O)([O-])OP(=O)(O)OC[C@H]3O[C@@H](n4cnc5c(N)ncnc54)[C@H](O)[C@@H]3O)[C@@H](O)[C@H]2O)c1 [NAD+, nicotinamide adenine dinucleotide] |  |  |  |  | thermal shift in SIRT1 melting curves, separate additions (human SIRT1 [2]): did not cause any thermal shift
histone H3K9 peptide: acetylated histone H3K9 peptide (KQTARK(Ac)STGG, a natural substrate of SIRT1) (UniProt P68431 5-14, looked up, fragment) [reference compound] |  |  |  |  | thermal shift in SIRT1 melting curves, separate additions (human SIRT1 [2]): did not cause any thermal shift; Peptide induced thermal shift (human SIRT1 [3]; 120 µM H3K9 in the presence of 500 µM NAD+): +1.2 °C
